Values belong to the compound of their own block, whether it stands above or below them.
Target: T1, Human MTHFD2 (Homo sapiens, UniProt P13995)
T1 construct: residues 36-350 in Uniport ID P13995; His6 (N); made in house; host or cells: E. coli
T1 sequence (P13995 36-350): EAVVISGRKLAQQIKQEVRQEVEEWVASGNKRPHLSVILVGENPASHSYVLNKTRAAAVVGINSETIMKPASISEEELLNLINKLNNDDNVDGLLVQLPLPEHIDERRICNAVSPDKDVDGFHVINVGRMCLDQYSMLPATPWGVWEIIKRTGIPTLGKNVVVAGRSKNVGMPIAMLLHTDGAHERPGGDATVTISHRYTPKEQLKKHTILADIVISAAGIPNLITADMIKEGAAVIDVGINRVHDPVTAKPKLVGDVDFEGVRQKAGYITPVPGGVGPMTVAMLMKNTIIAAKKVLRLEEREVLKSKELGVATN
Assay: MTHFD2 Activity Assay (dehydrogenase activity, diaphorase/resazurin coupled fluorescence)
Type: biochemical
Conditions: inhibitory activity (IC50 and/or binding constant); 0.2 nM MTHFD2, 11 concentrations
Summary of the method: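 Resorufin fluorescence (ex 525, em 598 nm) reports NADH formed by the dehydrogenase via diaphorase coupling. Enzyme (0.2 nM, residues 36-350, N-His6) sat with compound 15 min before 70 μM CH2-THF and 1 mM NAD+ started a 30 min reaction. IC50s come from 4-parameter fits over 11 concentrations.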

Compound: Cn1c(Nc2cccnn2)nc2c1c(=O)n(Cc1cc3cc(Cl)ccc3[nH]1)c(=O)n2C [Example 200, 1-((5-chloro-1H-indol-2-yl)methyl)-3,7-dimethyl-8-(pyridazin-3-ylamino)-1H-purine-2,6(3H,7H)-dione]
IC50: 1000 to 5000 nM

Compound: Cn1c(NC[C@H](O)CO)nc2c1c(=O)n(Cc1ccc(Cl)cc1)c(=O)n2C [Example 16, 1-[(4-chlorophenyl)methyl]-8-{[(2S)-2,3-dihydroxypropyl]amino}-3,7-dimethyl-2,3,6,7-tetrahydro-1H-purine-2,6-dione]
IC50: > 10000 nM

Compound: CN(C)C1CCCC(Nc2nc3c(c(=O)n(Cc4ccc(Cl)c(Cl)c4)c(=O)n3C)n2C)C1 (racemic) [Example 84, (±)-1-(3,4-dichlorobenzyl)-8-(((cis)-3-(dimethylamino)cyclohexyl)amino)-3,7-dimethyl-3,7-dihydro-1H-purine-2,6-dione or (±)-1-(3,4-dichlorobenzyl)-8-(((trans)-3-(dimethylamino)cyclohexyl)amino)-3,7-dimethyl-3,7-dihydro-1H-purine-2,6-dione]
IC50: 1000 to 5000 nM

Compound: Cn1c(N[C@H]2CC[C@@H](O)C2)nc2c1c(=O)n(Cc1ccc3cc[nH]c3c1)c(=O)n2C (racemic) [Example 163, (±)-1-((1H-indol-6-yl)methyl)-8-((cis)-3-hydroxycyclopentylamino)-3,7-dimethyl-1H-purine-2,6(3H,7H)-dione]
IC50: 1000 to 5000 nM

Compound: Cc1ccc2[nH]c(Cn3c(=O)c4c(nc(N)n4C)n(C)c3=O)cc2c1 [Example 232, 8-amino-3,7-dimethyl-1-((5-methyl-1H-indol-2-yl)methyl)-1H-purine-2,6(3H,7H)-dione]
IC50: > 10000 nM

Compound: Cn1c(Nc2cc[nH]n2)nc2c1c(=O)n(Cc1ccc(Cl)c(Cl)c1)c(=O)n2C [Example 141, 8-(1H-pyrazol-3-ylamino)-1-(3,4-dichlorobenzyl)-3,7-dimethyl-1H-purine-2,6(3H,7H)-dione]
IC50: 1000 to 5000 nM

Compound: Cn1c(NCCCO)nc2c1c(=O)n(Cc1ccc(F)c(F)c1)c(=O)n2C [Example 29, 1-[(3,4-difluorophenyl)methyl]-8-[(3-hydroxypropyl)amino]-3,7-dimethyl-2,3,6,7-tetrahydro-1H-purine-2,6-dione]
IC50: > 10000 nM

Compound: Cc1ccc2c(c1)cc(Cn1c(=O)c3c(nc(N[C@H]4CC[C@@H](O)C4)n3C)n(C)c1=O)n2C [Example 185, 1-((1,5-dimethyl-1H-indol-2-yl)methyl)-8-((1S,3R)-3-hydroxycyclopentylamino)-3,7-dimethyl-1H-purine-2,6(3H,7H)-dione]
IC50: 10 to 1000 nM

Compound: Cn1c(N[C@@H]2CC[C@@H](O)C2)nc2c(=O)n(Cc3ccc(Cl)c(Cl)c3)c(=O)n(C)c21 [Example 262, 1-(3,4-dichlorobenzyl)-8-((1R,3R)-3-hydroxycyclopentylamino)-3,9-dimethyl-1H-purine-2,6(3H,9H)-dione]
IC50: > 10000 nM

Compound: Cn1cnc2c1c(=O)n(Cc1cc3cccnc3[nH]1)c(=O)n2C [Example 290, 1-((1H-pyrrolo[2,3-b]pyridin-2-yl)methyl)-3,7-dimethyl-1H-purine-2,6(3H,7H)-dione]
IC50: 5000 to 10000 nM

Compound: Cn1c(Nc2ccnc(CCC(=O)N3CCOCC3)n2)nc2c1c(=O)n(Cc1cc3c(Cl)cccc3[nH]1)c(=O)n2C [Example 416, 1-((4-chloro-1H-indol-2-yl)methyl)-3,7-dimethyl-8-((2-(3-morpholino-3-oxopropyl)pyrimidin-4-yl)amino)-3,7-dihydro-1H-purine-2,6-dione]
IC50: 10 to 1000 nM

Compound: Cn1c(Nc2cn[nH]c2)nc2c1c(=O)n(Cc1ccc(Cl)c(Cl)c1)c(=O)n2C [Example 135]
IC50: 1000 to 5000 nM

Other lines, results leading:

IC50: 10 to 1000 nM
Compound: Cn1c(C(N)C2CCOCC2)nc2c1c(=O)n(Cc1[nH]c3cccc(Cl)c3c1Cl)c(=O)n2C (stereo not drawn) [Example 455, 8-[amino(tetrahydropyran-4-yl)methyl]-1-[(3,4-dichloro-1H-indol-2-yl)methyl]-3,7-dimethyl-purine-2,6-dione]

IC50: 10 to 1000 nM
Compound: Cn1c(N[C@H]2CC[C@H](C(=O)O)CC2)nc2c1c(=O)n(Cc1ccc(Cl)c(Cl)c1)c(=O)n2C [Example 272, (±)-trans-4-[[1-[(3,4-dichlorophenyl)methyl]-3,7-dimethyl-2,6-dioxo-purin-8-yl]amino]cyclohexanecarboxylic acid]

IC50: 10 to 1000 nM
Compound: Cn1c(N[C@H]2C[C@@H](C(=O)O)C2)nc2c1c(=O)n(Cc1ccc(Cl)c(Cl)c1)c(=O)n2C [Example 259, (±)-(cis)-3-(1-(3,4-dichlorobenzyl)-3,7-dimethyl-2,6-dioxo-2,3,6,7-tetrahydro-1H-purin-8-ylamino)cyclobutanecarboxylic acid]

IC50: 10 to 1000 nM
Compound: Cn1c(NC2CCCC(C(=O)O)C2)nc2c1c(=O)n(Cc1ccc(Cl)c(Cl)c1)c(=O)n2C (racemic) [Example 114, (±)-3-(1-(3,4-dichlorobenzyl)-3,7-dimethyl-2,6-dioxo-2,3,6,7-tetrahydro-1H-purin-8-ylamino)cyclohexanecarboxylic acid]

IC50: 10 to 1000 nM
Compound: Cn1c(Cn2c(=O)c3c(nc(N[C@H]4CC[C@@H](O)C4)n3C)n(C)c2=O)cc2cc(Cl)ccc21 (racemic) [Example 178, (±)-1-((5-chloro-1-methyl-1H-indol-2-yl)methyl)-8-((cis)-3-hydroxycyclopentylamino)-3,7-dimethyl-1H-purine-2,6(3H,7H)-dione]

IC50: 10 to 1000 nM
Compound: Cn1c(N[C@H]2CCC(=O)NC2)nc2c1c(=O)n(Cc1ccc(Cl)c(Cl)c1)c(=O)n2C (single isomer, unassigned) [Example 82, (S)-1-(3,4-dichlorobenzyl)-3,7-dimethyl-8-(6-oxopiperidin-3-ylamino)-1H-purine-2,6(3H,7H)-dione or (R)-1-(3,4-dichlorobenzyl)-3,7-dimethyl-8-(6-oxopiperidin-3-ylamino)-1H-purine-2,6(3H,7H)-dione]

IC50: 10 to 1000 nM
Compound: Cn1c(Nc2ncc[nH]2)nc2c1c(=O)n(Cc1cc3c(Cl)cccc3[nH]1)c(=O)n2C [Example 356, 1-[(4-chloro-1H-indol-2-yl)methyl]-8-(1H-imidazol-2-ylamino)-3,7-dimethyl-purine-2,6-dione]

IC50: 10 to 1000 nM
Compound: Cn1c(Nc2ccnc(CCC(N)=O)c2)nc2c1c(=O)n(Cc1ccc(Cl)c(Cl)c1)c(=O)n2C [Example 283, 3-(4-(1-(3,4-dichlorobenzyl)-3,7-dimethyl-2,6-dioxo-2,3,6,7-tetrahydro-1H-purin-8-ylamino)pyridin-2-yl)propanamide]

IC50: 10 to 1000 nM
Compound: Cn1c(N[C@H]2CCC[C@H]2O)nc2c1c(=O)n(Cc1ccc(Cl)c(Cl)c1)c(=O)n2C [Example 94, 1-[(3,4-dichlorophenyl)methyl]-8-{[(1S,2R)-2-hydroxycyclopentyl]amino}-3,7-dimethyl-2,3,6,7-tetrahydro-1H-purine-2,6-dione]

IC50: 10 to 1000 nM
Compound: CCOC(=O)[C@H]1C[C@@H](Nc2nc3c(c(=O)n(Cc4ccc(Cl)c(Cl)c4)c(=O)n3C)n2C)C1 [Example 258, (±)-(cis)-ethyl 3-(1-(3,4-dichlorobenzyl)-3,7-dimethyl-2,6-dioxo-2,3,6,7-tetrahydro-1H-purin-8-ylamino)cyclobutanecarboxylate]

IC50: 10 to 1000 nM
Compound: Cc1cccc2[nH]c(Cn3c(=O)c4c(nc(N[C@H]5C[C@H](CO)C5)n4C)n(C)c3=O)cc12 [Example 327, 8-((1R,3R)-3-(hydroxymethyl)cyclobutylamino)-3,7-dimethyl-1-((4-methyl-1H-indol-2-yl)methyl)-1H-purine-2,6(3H,7H)-dione]

IC50: 10 to 1000 nM
Compound: Cn1c(C2CCNC2)nc2c1c(=O)n(Cc1cc3c(Cl)cccc3[nH]1)c(=O)n2C (stereo not drawn) [Example 425, 1-[(4-chloro-1H-indol-2-yl)methyl]-3,7-dimethyl-8-pyrrolidin-3-yl-purine-2,6-dione]

IC50: 10 to 1000 nM
Compound: Cn1c(Nc2ccncn2)nc2c1c(=O)n(Cc1cc3c(Cl)cccc3[nH]1)c(=O)n2C [Example 362, 1-((4-chloro-1H-indol-2-yl)methyl)-3,7-dimethyl-8-(pyrimidin-4-ylamino)-3,7-dihydro-1H-purine-2,6-dione]

IC50: 10 to 1000 nM
Compound: Cn1c(N[C@H]2CCC[C@@H]2O)nc2c1c(=O)n(Cc1ccc(Cl)c(Cl)c1)c(=O)n2C [Example 92, 1-[(3,4-dichlorophenyl)methyl]-8-{[(1S,2S)-2-hydroxycyclopentyl]amino}-3,7-dimethyl-2,3,6,7-tetrahydro-1H-purine-2,6-dione]

IC50: 10 to 1000 nM
Compound: Cn1c(Nc2cccc([C@H]3C[C@H]3C(=O)O)n2)nc2c1c(=O)n(Cc1cc3c(Cl)cccc3[nH]1)c(=O)n2C (racemic) [Example 372, (±)-cis-2-(6-((1-((4-chloro-1H-indol-2-yl)methyl)-3,7-dimethyl-2,6-dioxo-2,3,6,7-tetrahydro-1H-purin-8-yl)amino)pyridin-2-yl)cyclopropane-1-carboxylic acid]

IC50: 10 to 1000 nM
Compound: C[C@@H](CCO)Nc1nc2c(c(=O)n(Cc3ccc(Cl)c(Cl)c3)c(=O)n2C)n1C [Example 32, 1-[(3,4-dichlorophenyl)methyl]-8-{[(2S)-4-hydroxybutan-2-yl]amino}-3,7-dimethyl-2,3,6,7-tetrahydro-1H-purine-2,6-dione]

IC50: 10 to 1000 nM
Compound: Cn1c(Nc2ccc(S(C)(=O)=O)cc2)nc2c1c(=O)n(Cc1cc3c(Cl)cccc3[nH]1)c(=O)n2C [Example 367, 1-[(4-chloro-1H-indol-2-yl)methyl]-3,7-dimethyl-8-(4-methylsulfonylanilino)purine-2,6-dione]

IC50: 10 to 1000 nM
Compound: Cn1c(Nc2cccc(CCCO)n2)nc2c1c(=O)n(Cc1ccc(Cl)c(Cl)c1)c(=O)n2C [Example 293, 1-(3,4-dichlorobenzyl)-8-(6-(3-hydroxypropyl)pyridin-2-ylamino)-3,7-dimethyl-1H-purine-2,6(3H,7H)-dione]
